The source of these data is ChEMBL document CHEMBL1201862, “PubChem BioAssay data set” (2004).

Some test systems named below: SK-MEL-28; RPMI-8226; MDA-MB-435; ACHN; UACC-257; HCT-116; UO-31; T47D; LOX IMVI; K562; NCI-H522; U-251; OVCAR-4; BT-549; SNB-75; TK-10; SF-295; Malme-3M; RXF 393.
What all share (test): NCI-60 cell line screen, 48 h

SMILES strings stand for the structures.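 Dose response: 5 concentrations. Exposure: 48 h. Format: 96-well plates. Endpoint: linear interpolation; highest concentration if not reached. Abbreviation: GI50, concentration required for 50% inhibition of growth.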 Activity calls are given as the source filed them. No stated cut-off is given here; in the data, active = GI50 up to about 1.1 µM and inactive = higher. Some results are limits rather than exact numbers.

Turning to `COC12OC3CC4(C)C(=CC3OC(OC(C)C1O)C2O)CCC1C4CCC2(C)C(c3ccc(=O)oc3)CCC12O` (stereo not given), the GI50 in the assay with SK-MEL-28 is 0.00385 µM (active); in the assay on RPMI-8226, 0.00177 µM (active); in the assay with MDA-MB-435, 0.00216 µM (active); with ACHN, 0.00181 µM (active); in the assay on UACC-257, 0.00283 µM (active); with HCT-116, 0.00136 µM (active). In addition, the GI50 is 0.0017 µM (active) with UO-31; 0.00227 µM (active) in the assay on T47D; 0.00137 µM (active) in the assay on LOX IMVI; 0.00237 µM (active) in the assay on K562; < 0.001 µM (active) with NCI-H522; 0.00142 µM (active) in the assay with U-251. For the same compound, the GI50 was 0.00126 µM (active) in the assay on OVCAR-4; 0.00143 µM (active) in the assay on BT-549; 0.00202 µM (active) in the assay on SNB-75; 0.00122 µM (active) with TK-10; 0.00176 µM (active) in the assay with SF-295; 0.00168 µM (active) in the assay on Malme-3M. Besides, in the assay with RXF 393, the GI50 is 0.00234 µM (active).

Consider `O=[N+]([O-])c1cc(Cl)ccc1Sc1ccccc1`, for which the GI50 in the assay with SK-MEL-28 was > 100 µM (inactive); in the assay with RPMI-8226, > 100 µM (inactive); in the assay with MDA-MB-435, > 100 µM (inactive); in the assay on ACHN, > 100 µM (inactive); in the assay with UACC-257 it was > 100 µM (inactive); in the assay on HCT-116, 34.3 µM (inactive). For the same compound, the GI50 in the assay on UO-31 was 23.6 µM (inactive); with T47D, 69.5 µM (inactive); in the assay with LOX IMVI, > 100 µM (inactive); in the assay with K562, > 100 µM (inactive); with NCI-H522 it was > 100 µM (inactive); in the assay on U-251, 5.89 µM (inactive). The GI50 is > 100 µM (inactive) in the assay with OVCAR-4; 81.5 µM (inactive) with BT-549; 20.8 µM (inactive) in the assay on SNB-75; > 100 µM (inactive) in the assay with TK-10; > 100 µM (inactive) with SF-295; > 100 µM (inactive) with Malme-3M. In the assay on RXF 393, the GI50 is 80.2 µM (inactive).

Regarding `COc1cc(/C=C2\N=C(c3ccccc3)N(c3nc4ccccc4s3)C2=O)cc(OC)c1OC`, the GI50 was 33 µM (inactive) in the assay on SK-MEL-28; 0.352 µM (active) with RPMI-8226; 15.6 µM (inactive) with MDA-MB-435; 20.6 µM (inactive) in the assay on ACHN; > 100 µM (inactive) in the assay with UACC-257; 35 µM (inactive) in the assay on HCT-116. The GI50 was 58.5 µM (inactive) in the assay on UO-31; 28.9 µM (inactive) in the assay with T47D; 36.4 µM (inactive) with LOX IMVI; 16.5 µM (inactive) with K562; 13.4 µM (inactive) in the assay on NCI-H522; 26.1 µM (inactive) in the assay with U-251. The GI50 is 23.9 µM (inactive) in the assay with OVCAR-4; 17.5 µM (inactive) in the assay with BT-549; 23.1 µM (inactive) in the assay on SNB-75; > 100 µM (inactive) in the assay on TK-10; 39.5 µM (inactive) in the assay on SF-295; 18.8 µM (inactive) in the assay on RXF 393.

Turning to `O=C1Nc2ccccc2/C1=C/c1ccccc1`, the GI50 in the assay with SK-MEL-28 is 20.8 µM (inactive); in the assay with RPMI-8226, 18.2 µM (inactive); in the assay on MDA-MB-435, 15.8 µM (inactive); in the assay on ACHN, 30.4 µM (inactive); in the assay on UACC-257, 15 µM (inactive); in the assay with HCT-116 it was 14 µM (inactive). Also, the GI50 with UO-31 was 12.6 µM (inactive); in the assay with T47D, 12.3 µM (inactive); in the assay on LOX IMVI, 13.2 µM (inactive); in the assay with K562, 27.7 µM (inactive); in the assay on NCI-H522, 15.8 µM (inactive); with U-251, 15 µM (inactive). Besides, the GI50 in the assay with OVCAR-4 is 23.6 µM (inactive); in the assay with BT-549, 16.4 µM (inactive); with SNB-75, 12.9 µM (inactive); in the assay with TK-10, 21.7 µM (inactive); with SF-295, 17.5 µM (inactive); in the assay on RXF 393 it was 9.27 µM (inactive).

As to `N#CC1=C(N2CCOCC2)CCC1`, the GI50 with RPMI-8226, with MDA-MB-435, in the assay with ACHN, with UACC-257, in the assay on HCT-116 and in the assay on UO-31 was > 100 µM (inactive) throughout. Besides, the GI50 in the assay with T47D, in the assay with LOX IMVI, with K562, in the assay with NCI-H522, in the assay with U-251 and in the assay on OVCAR-4 was > 100 µM (inactive) in each case. The GI50 in the assay with BT-549, in the assay with SNB-75, in the assay on TK-10, in the assay on SF-295, in the assay with Malme-3M and in the assay on RXF 393 was > 100 µM (inactive) in each case.

With `Cc1cc(C)c(S(=O)(=O)N[C@@H](/C=C(\Br)CO)C(C)C)c(C)c1`, the GI50 is 24.9 µM (inactive) in the assay on SK-MEL-28; 21.6 µM (inactive) with RPMI-8226; 17.3 µM (inactive) in the assay on MDA-MB-435; 30.4 µM (inactive) with ACHN; 21.5 µM (inactive) in the assay with UACC-257; 33.4 µM (inactive) with HCT-116. In addition, the GI50 in the assay with UO-31 is 33 µM (inactive); in the assay with T47D, 25.9 µM (inactive); in the assay with LOX IMVI, 18.7 µM (inactive); in the assay with K562, 18.5 µM (inactive); with NCI-H522, 17.7 µM (inactive); in the assay on U-251, 25.4 µM (inactive). Also, the GI50 was 40.3 µM (inactive) with BT-549; 45 µM (inactive) in the assay with SNB-75; 34.5 µM (inactive) in the assay with TK-10; 30.2 µM (inactive) in the assay on SF-295; 21.5 µM (inactive) with Malme-3M; 23.4 µM (inactive) with RXF 393.

Consider `Cc1ccc2[nH]c3c(c2c1)C1CCC(C(C)(C)C)CC1C1C(=O)N(c2ccc4c(c2)OCO4)C(=O)C31` (stereo not given), for which the GI50 was 5.61 µM (inactive) in the assay on SK-MEL-28; 4.3 µM (inactive) with RPMI-8226; 7.21 µM (inactive) in the assay with MDA-MB-435; 1.87 µM (inactive) in the assay with ACHN; 9.68 µM (inactive) in the assay with UACC-257; 2.34 µM (inactive) in the assay with HCT-116. The GI50 in the assay with UO-31 is 2.55 µM (inactive); in the assay on T47D, 2.06 µM (inactive); in the assay on LOX IMVI, 2.4 µM (inactive); in the assay on K562, 3.01 µM (inactive); with NCI-H522 it was 2.67 µM (inactive); with U-251 it was 2.1 µM (inactive). In addition, the GI50 with OVCAR-4 is 1.85 µM (inactive); in the assay with BT-549, 7.87 µM (inactive); in the assay with TK-10 it was 2.05 µM (inactive); in the assay on SF-295, 3.11 µM (inactive); with Malme-3M it was 2.23 µM (inactive); with RXF 393 it was 2.26 µM (inactive).

Regarding `C=CCN1C(=O)/C(=C/c2ccccc2)N=C1SC1OC(COC(C)=O)C(OC(C)=O)C(OC(C)=O)C1OC(C)=O` (stereo not given), the GI50 in the assay with SK-MEL-28 was 26.1 µM (inactive); in the assay with RPMI-8226, 24.4 µM (inactive); with MDA-MB-435, 26.9 µM (inactive); in the assay on ACHN, 22.9 µM (inactive); in the assay with UACC-257, 27.9 µM (inactive); in the assay with HCT-116 it was 22.8 µM (inactive). The GI50 in the assay with T47D was 27.2 µM (inactive); with LOX IMVI, 27.2 µM (inactive); in the assay on K562 it was 24.4 µM (inactive); in the assay on NCI-H522 it was 16.3 µM (inactive); in the assay on U-251 it was 19.2 µM (inactive); in the assay with OVCAR-4, 27.2 µM (inactive). Further, the GI50 in the assay with BT-549 was 28.6 µM (inactive); with SNB-75, 21.9 µM (inactive); in the assay on TK-10, 72.8 µM (inactive); with SF-295 it was 50.1 µM (inactive); with Malme-3M, 19.5 µM (inactive); in the assay with RXF 393, 13.1 µM (inactive).

In the case of `Cc1c(NC(=O)CSC(=S)N2CCN(Cc3ccccc3)CC2)c(=O)n(-c2ccccc2)n1C`, the GI50 with SK-MEL-28, with RPMI-8226, in the assay on MDA-MB-435, in the assay on ACHN, in the assay with UACC-257 and in the assay on HCT-116 was > 100 µM (inactive) each time. In addition, the GI50 with UO-31, in the assay with T47D, in the assay on LOX IMVI, in the assay with K562, with NCI-H522 and in the assay on U-251 was > 100 µM (inactive) in each case. The GI50 with OVCAR-4, in the assay on BT-549, in the assay on TK-10, in the assay with SF-295, with Malme-3M and with RXF 393 was > 100 µM (inactive) each time.

With `CN(C)c1ccc(/C=C(\NC(=O)c2ccccc2)C(=O)NC(CC(=O)O)C(=O)O)cc1` (stereo not given), the GI50 with SK-MEL-28, with RPMI-8226, in the assay on MDA-MB-435, in the assay with ACHN, with UACC-257 and in the assay with HCT-116 was > 100 µM (inactive) each time. In addition, the GI50 in the assay on UO-31 is > 100 µM (inactive); in the assay on T47D it was > 100 µM (inactive); in the assay with LOX IMVI, 86.3 µM (inactive); with K562 it was 18.2 µM (inactive); with NCI-H522, 17.7 µM (inactive); in the assay on U-251 it was > 100 µM (inactive). Further, the GI50 in the assay with OVCAR-4 is 53.2 µM (inactive); in the assay with BT-549, > 100 µM (inactive); in the assay with SNB-75, 1.99 µM (inactive); in the assay with TK-10, > 100 µM (inactive); in the assay on SF-295, > 100 µM (inactive); in the assay on RXF 393, > 100 µM (inactive).

`COc1ccc(OC)c(CC2CCc3nc(N)nc(N)c3C2)c1` (stereo not given): the GI50 is 18.8 µM (inactive) in the assay with SK-MEL-28; 18.2 µM (inactive) with RPMI-8226; 12.6 µM (inactive) in the assay on MDA-MB-435; < 0.0284 µM (active) in the assay on ACHN; 5.78 µM (inactive) in the assay with UACC-257; < 0.01 µM (active) in the assay on HCT-116. For the same compound, the GI50 in the assay on UO-31 was 4.85 µM (inactive); in the assay with T47D, 20.1 µM (inactive); with LOX IMVI it was 0.0561 µM (active); in the assay with K562 it was > 100 µM (inactive); in the assay with NCI-H522, 0.774 µM (active); in the assay on U-251, > 49.3 µM (inactive). Moreover, the GI50 with OVCAR-4 was 28.8 µM (inactive); with BT-549, 0.146 µM (active); in the assay with SNB-75 it was 0.828 µM (active); with TK-10, 8.32 µM (inactive); in the assay on Malme-3M it was 0.0334 µM (active); in the assay with RXF 393, < 0.01 µM (active).
